Experiment: In vitro MRI relaxation properties (relaxivity)
Source text: In vitro MRI of GdNPs and Polymer Modified Gd NPs. In order to provide information about the clinical imaging viability of the polymer modified gold/Gd nanoparticles, as a positive contrast agent, in vitro MRI was employed to determine relaxation properties of the unmodified and polymer modified gold/Gd nanoparticles. Table 1 compares the MRI longitudinal and transverse relaxivities, r1 and r2, respectively, of PNIPAM-modified gold/Gd nanoparticles and gold/Gd unmodified nanoparticles to the clinically employed contrasts agents, gadopentetate dimeglumine (Magnevist®) and gadobenate dimeglumine (Multihance®). […] By taking advantage of these properties, novel theragnostic polymer-modified gold/Gd nanoparticles could be produced and exploited as contrast agents for conventional T1 MR imaging.

Row | Compound | r1 (MRI longitudinal relaxivity)
1 | CNC[C@H](O)[C@@H](O)[C@H](O)[C@H](O)CO.CNC[C@H](O)[C@@H](O)[C@H](O)[C@H](O)CO.O=C([O-])CN(CCN(CC(=O)[O-])CC(=O)O)CCN(CC(=O)O)C(COCc1ccccc1)C(=O)[O-].[Gd+3] (centres unmarked) [Multihance ®, gadobenate dimeglumine] | 17.7 mM⁻¹ s⁻¹
2 | CNC[C@H](O)[C@@H](O)[C@H](O)[C@H](O)CO.CNC[C@H](O)[C@@H](O)[C@H](O)[C@H](O)CO.O=C([O-])CN(CCN(CC(=O)[O-])CC(=O)O)CCN(CC(=O)[O-])CC(=O)O.[Gd+3] [Magnevist ®, gadopentetate dimeglumine] | 6.95 mM⁻¹ s⁻¹
